# “And” between values parts separate entries of the source, which are not always exact repeats. Equal entries are not always repeated. The source made the active and inactive calls. The rule behind the calls is not given here.
# Assays:
# Cannabinoid receptor 1 [1] = target: Cannabinoid receptor 1 (Mus musculus, UniProt P47746); experiment: Displacement of [3H]-CP55,940 from CB1 receptor in mouse whole brain membranes after 60 mins by liquid scintillation spectrometry; format: cell membranes, Membrane
# Cannabinoid receptor 2 = Cannabinoid receptor 2 (Homo sapiens, UniProt P34972); experiment: Displacement of [3H]-CP55,940 from human CB2 receptor transfected in CHO cell membranes after 60 mins by liquid scintillation spectrometry
# [2] = Selectivity ratio of Ki for human CB2 receptor to Ki for CB1 receptor in mouse whole brain membranes; format: cell membranes
# [3] = target: Cannabinoid receptor 1 (Mus musculus) (UniProt P47746); experiment: Intrinsic activity at CB1 receptor in mouse N1E-115 cells assessed as phosphorylation of ERK1/2 at 1 uM after 10 mins by Western blot method relative to control; format: cell-based
# [4] = target: Cannabinoid receptor 1 (Mus musculus) (UniProt P47746); experiment: Antagonist activity at CB1 receptor in mouse N1E-115 cells assessed as inhibition of WIN55,212-2-induced phosphorylation of ERK1/2 by measuring phosphorylated ERK1/2 level at 1 uM preincubated for 5 mins followed by WIN55,212-2 addition measured after 10 mins by Western blot method; format: cell-based; design: scale not given: the % may be the effect or the level left
# Cannabinoid receptor 1 [5] = target: Cannabinoid receptor 1 (Homo sapiens, UniProt P21554); experiment: Displacement of [3H]-CP55,940 from human CB1 receptor transfected in CHO cell membranes
# [6] = target: Cannabinoid receptor 1 (Mus musculus) (UniProt P47746); experiment: Intrinsic activity at CB1 receptor in mouse N1E-115 cells assessed as phosphorylation of ERK1/2 at 1 nM to 10 uM after 10 mins by Western blot method; format: cell-based
# Chain of Cannabinoid receptor 1 (Mus musculus) (P47746 whole entry): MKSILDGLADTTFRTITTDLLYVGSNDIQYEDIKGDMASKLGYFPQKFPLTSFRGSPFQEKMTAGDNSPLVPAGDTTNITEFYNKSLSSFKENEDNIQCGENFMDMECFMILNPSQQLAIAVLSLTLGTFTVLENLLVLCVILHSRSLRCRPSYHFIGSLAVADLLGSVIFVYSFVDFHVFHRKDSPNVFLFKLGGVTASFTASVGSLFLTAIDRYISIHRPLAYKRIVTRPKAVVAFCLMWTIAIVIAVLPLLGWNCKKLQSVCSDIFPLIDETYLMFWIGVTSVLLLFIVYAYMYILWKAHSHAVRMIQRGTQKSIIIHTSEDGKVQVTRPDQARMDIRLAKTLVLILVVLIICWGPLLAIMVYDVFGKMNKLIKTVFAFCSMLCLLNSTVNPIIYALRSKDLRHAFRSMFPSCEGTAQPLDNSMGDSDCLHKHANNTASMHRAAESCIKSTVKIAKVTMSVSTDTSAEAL
# Chain of Cannabinoid receptor 1 (Mus musculus, UniProt P47746) (P47746 whole entry): as above
# Chain of Cannabinoid receptor 2 (P34972 whole entry): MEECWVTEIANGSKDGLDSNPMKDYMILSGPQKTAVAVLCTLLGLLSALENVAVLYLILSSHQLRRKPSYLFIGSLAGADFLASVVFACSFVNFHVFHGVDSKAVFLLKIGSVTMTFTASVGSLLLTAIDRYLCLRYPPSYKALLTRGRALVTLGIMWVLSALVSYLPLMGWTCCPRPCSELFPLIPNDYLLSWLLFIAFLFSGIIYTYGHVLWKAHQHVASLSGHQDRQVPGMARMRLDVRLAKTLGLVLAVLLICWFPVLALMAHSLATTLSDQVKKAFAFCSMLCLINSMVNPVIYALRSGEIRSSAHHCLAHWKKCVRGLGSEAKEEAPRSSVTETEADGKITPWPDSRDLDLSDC
# Chain of Cannabinoid receptor 1 (Homo sapiens, UniProt P21554) (P21554 whole entry): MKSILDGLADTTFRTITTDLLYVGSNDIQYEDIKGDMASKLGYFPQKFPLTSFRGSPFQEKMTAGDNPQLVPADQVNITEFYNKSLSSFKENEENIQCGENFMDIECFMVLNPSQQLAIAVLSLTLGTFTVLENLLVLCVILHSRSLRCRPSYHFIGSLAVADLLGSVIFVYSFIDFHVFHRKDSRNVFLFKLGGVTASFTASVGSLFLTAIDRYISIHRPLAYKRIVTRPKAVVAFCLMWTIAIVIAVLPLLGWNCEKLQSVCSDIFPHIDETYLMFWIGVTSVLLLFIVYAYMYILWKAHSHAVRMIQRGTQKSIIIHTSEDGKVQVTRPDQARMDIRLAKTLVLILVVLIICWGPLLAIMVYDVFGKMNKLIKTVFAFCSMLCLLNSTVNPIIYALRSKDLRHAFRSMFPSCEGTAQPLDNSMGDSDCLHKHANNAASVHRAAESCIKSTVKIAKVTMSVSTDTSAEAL
smiles,measurement,setting,value
OC(CC1CCCCC1)c1nn(-c2ccc(Cl)cc2Cl)c2c1CCCc1cc(Cl)ccc1-2 (stereo unspecified),Ki,Cannabinoid receptor 1 [1],154 nM
same,Ki,Cannabinoid receptor 2,24 nM
same,Ratio Ki,[2],0.16
CCCCCCC(C)(C)c1ccc([C@@H]2C[C@H](O)CC[C@H]2CCCO)c(O)c1 [CP-55940],Ki,Cannabinoid receptor 1 [1],0.62 nM
O=C(CC1CCCCC1)c1nn(-c2ccc(Cl)cc2Cl)c2c1CCCc1cc(Cl)ccc1-2,Intrinsic activity,[3],115%
same,Ki,Cannabinoid receptor 1 [1],8.5 nM
same,Ki,Cannabinoid receptor 2,325 nM
same,Activity,[4],105%
same,Ratio Ki,[2],38.2
O=C(NN1CCCCC1)c1nn(-c2ccc(Cl)cc2Cl)c2c1CCCc1cc(Cl)ccc1-2,Intrinsic activity,[3],111%
same,Ki,Cannabinoid receptor 1 [1],8.18 nM and 4.2 nM
same,Ki,Cannabinoid receptor 1 [5],126 nM
same,Ki,Cannabinoid receptor 2,55.7 nM and 85.2 nM
same,Activity,[4],115%
same,Ratio Ki,[2],13.3
O=C(NC1CCCCC1)c1nn(-c2ccc(Cl)cc2Cl)c2c1CCCc1cc(Cl)ccc1-2,Intrinsic activity,[3],113%
same,Ki,Cannabinoid receptor 1 [1],10.2 nM
same,Ki,Cannabinoid receptor 2,17.9 nM
same,Activity,[4],117%
same,Ratio Ki,[2],1.75
O=C(NCC1CCCCC1)c1nn(-c2ccc(Cl)cc2Cl)c2c1CCCc1cc(Cl)ccc1-2,Intrinsic activity,[3],100%
same,Ki,Cannabinoid receptor 1 [1],19.4 nM
same,Ki,Cannabinoid receptor 2,31.8 nM
same,Activity,[4],109%
same,Ratio Ki,[2],1.64
Cc1ccc(Cn2nc(C(=O)NCC3CCC4CC3C4(C)C)c3c2-c2ccc(Cl)cc2CCC3)cc1 (stereo unspecified),Ki,Cannabinoid receptor 1 [1],313 nM
same,Ki,Cannabinoid receptor 2,9.5 nM
same,Ratio Ki,[2],0.03
O=C(NN1CCCC1)c1nn(-c2ccc(Cl)cc2Cl)c2c1CCCc1cc(Cl)ccc1-2,Intrinsic activity,[3],95%
same,Ki,Cannabinoid receptor 1 [1],17.2 nM
same,Ki,Cannabinoid receptor 2,182 nM
same,Activity,[4],103%
same,Ratio Ki,[2],10.6
CC1(C)C2CCC(CNC(=O)c3nn(-c4ccc(Cl)cc4Cl)c4c3CCCc3ccc(Cl)cc3-4)C1C2 (stereo unspecified),Ki,Cannabinoid receptor 1 [1],17.3 nM
same,Activity,[6],Active
same,Ki,Cannabinoid receptor 2,13.6 nM
same,Ratio Ki,[2],0.79
Cc1ccc(Cn2nc(C(=O)NCC3CCC4CC3C4(C)C)c3c2-c2cc(Cl)ccc2CCC3)cc1 (stereo unspecified),Ki,Cannabinoid receptor 1 [1],169 nM
same,Ki,Cannabinoid receptor 2,51.1 nM
same,Ratio Ki,[2],0.3
Cc1c(C(=O)NN2CCCCC2)nn(-c2ccc(Cl)cc2Cl)c1-c1ccc(Cl)cc1,Intrinsic activity,[3],110%
same,Activity,[4],108%
CC1(C)C2CCC(CNC(=O)c3nn(-c4ccc(Cl)cc4Cl)c4c3CCCc3cc(Cl)ccc3-4)C1C2 (stereo unspecified),Ki,Cannabinoid receptor 1 [1],3.6 nM
same,Activity,[6],Active
same,Ki,Cannabinoid receptor 2,19.5 nM
same,Ratio Ki,[2],5.42
O=C(NC[C@H]1CCCO1)c1nn(-c2ccc(Cl)cc2Cl)c2c1CCCc1cc(Cl)ccc1-2,Intrinsic activity,[3],113%
same,Ki,Cannabinoid receptor 1 [1],24.8 nM
same,Ki,Cannabinoid receptor 2,52.1 nM
same,Activity,[4],118%
same,Ratio Ki,[2],2.1
O=C(NN1CCCCCC1)c1nn(-c2ccc(Cl)cc2Cl)c2c1CCCc1cc(Cl)ccc1-2,Intrinsic activity,[3],107%
same,Ki,Cannabinoid receptor 1 [1],4.5 nM
same,Ki,Cannabinoid receptor 2,28.1 nM
same,Activity,[4],102%
same,Ratio Ki,[2],6.24
O=C(NCC12CC3CC(CC(C3)C1)C2)c1nn(-c2ccc(Cl)cc2Cl)c2c1CCCc1cc(Cl)ccc1-2,Intrinsic activity,[3],98%
same,Ki,Cannabinoid receptor 1 [1],19.1 nM
same,Ki,Cannabinoid receptor 2,13.3 nM
same,Activity,[4],108%
same,Ratio Ki,[2],0.69
